Measurements reported in patent publication US12630509B2, “Heterocyclic NMDA antagonists” (TAKEDA PHARMACEUTICAL COMPANY LIMITED, priority 2019, dated 2026).

Tested on: not given
Test: not given
Conditions: rodents; cited from earlier work

Question: With C[C@@H]([C@@H](O)c1ccc(O)cc1)N1CCC(O)(c2ccccc2)CC1 [CP-101,606] as the compound, how does the “number of occurrences and depth of cortical spreading depression” value read?
Answer: suppress the number of occurrences of and the depth of cortical spreading depression

Question: Which “number of occurrences and depth of cortical spreading depression” value does the source give for Ro25-6981 here?
Answer: suppress the number of occurrences of and the depth of cortical spreading depression

Tested on: NMDA receptor containing the NR2B subunit
Test: [3H]MK-801 binding test in vivo
Set-up: species or system Sprague Dawley rats
Conditions: [3H]MK-801 binding inhibitory rate in rat hippocampus, vehicle control 100%, excess MK-801 maleate 0%
Method: In order to confirm that compounds of the present disclosure exert functional antagonistic action on an NMDA receptor containing the NR2B subunit in vivo, a binding test was performed using tritium-labeled form of MK-801 ((5R,10S)-5-methyl-10,11-dihydro-5H-5,10-epiminodibenzo[a,d][7]annulene) ([3H]MK-801), which is a compound capable of binding to the opening site of the NMDA receptor.
The example compound (3 mg/kg/2 mL, 0.5% MC water) or vehicle (0.5% MC water 2 ml) was orally administered (p.o.) to Sprague Dawley rats (body weight 180-260 g). After a certain time (around after time-to maximum blood concentration), [3H]MK-801 (20 μCi/kg/mL, Muromachi Kikai) was intravenously administered. After 10 min, the rats were euthanized by decapitation, and subjected to craniotomy, and the hippocampus was collected. The collected hippocampus was homogenized in 30 volumes (30 mL per 1 g tissue) ice-cooled 20 mM HEPES (pH7.5, Hampton Research) using a homogenizer (T10 basic Ultra-Turrax) for 10 sec. […] The filter was washed four times with ice-cooled saline (5 mL, Otsuka Pharmaceutical), put into a scintillation vial, and then 10 mL of liquid scintillator A (FUJIFILM Wako Pure Chemical Corporation) was added thereto, and the residual radioactivity was counted using liquid scintillation counter (ALOKA LSC-6100).
Separately, the residual radioactivity in 100 μL of the homogenate before the filtration was counted in the same way. The value of [the residual radioactivity in the filter/the residual radioactivity in the 100 μL of the homogenate] was calculated as a [3H]MK-801 binding rate to the NMDA receptor expressing in each individual hippocampus tissue. […] The difference between the percentage of [^3H]MK-801 binding rate in the group orally administered with the example compound and that in the vehicle control group (100%) was analyzed as [^3H]MK-801 binding inhibitory rate by the example compound.

Question: For C[C@H]1[C@@H](O)CC(=O)N1Cc1ccc(Oc2ccc(C(F)F)cc2F)nc1 [Example 38, (4S,5S)-1-({6-[4-(difluoromethyl)-2-fluorophenoxy]pyridin-3-yl}methyl)-4-hydroxy-5-methylpyrrolidin-2-one], which “Inhibitory Rate (3 mg/kg, p.o.)” value is on record?
Answer: 22%

Question: Which “Inhibitory Rate (3 mg/kg, p.o.)” value does the source give for C[C@H]1CCC(=O)N1Cc1cnc(Oc2ccc(F)cc2F)nc1 [Example 45, (5S)-1-{[2-(2,4-difluorophenoxy)pyrimidine-5-yl]methyl}-5-methylpyrrolidine-2-one] here?
Answer: 13%

Question: For C[C@H]1COC(=O)N1Cc1cnc(Oc2ccc(Cl)cc2F)nc1 [Example 49, (4S)-3-{[2-(4-chloro-2-fluorophenoxy)pyrimidin-5-yl]methyl}-4-methyl-1,3-oxazolidin-2-one], which “Inhibitory Rate (3 mg/kg, p.o.)” value is on record?
Answer: 19%

Tested on: not given
Test: not given
Conditions: in vivo; cited from earlier work

Question: With CC12CC3CC(C)(C1)CC(N)(C3)C2 [memantine] as the compound, how does the “peripheral symptoms of dementia” value read?
Answer: partially ameliorated

Target: NMDA receptor composed of four subunits including two sets of heterodimers of NR1 and NR2B (GRIN1/GRIN2B) expressed in HEK 293 cells (Homo sapiens, UniProt Q13224)
Sequence (Q13224 27-1484, other chains not shown): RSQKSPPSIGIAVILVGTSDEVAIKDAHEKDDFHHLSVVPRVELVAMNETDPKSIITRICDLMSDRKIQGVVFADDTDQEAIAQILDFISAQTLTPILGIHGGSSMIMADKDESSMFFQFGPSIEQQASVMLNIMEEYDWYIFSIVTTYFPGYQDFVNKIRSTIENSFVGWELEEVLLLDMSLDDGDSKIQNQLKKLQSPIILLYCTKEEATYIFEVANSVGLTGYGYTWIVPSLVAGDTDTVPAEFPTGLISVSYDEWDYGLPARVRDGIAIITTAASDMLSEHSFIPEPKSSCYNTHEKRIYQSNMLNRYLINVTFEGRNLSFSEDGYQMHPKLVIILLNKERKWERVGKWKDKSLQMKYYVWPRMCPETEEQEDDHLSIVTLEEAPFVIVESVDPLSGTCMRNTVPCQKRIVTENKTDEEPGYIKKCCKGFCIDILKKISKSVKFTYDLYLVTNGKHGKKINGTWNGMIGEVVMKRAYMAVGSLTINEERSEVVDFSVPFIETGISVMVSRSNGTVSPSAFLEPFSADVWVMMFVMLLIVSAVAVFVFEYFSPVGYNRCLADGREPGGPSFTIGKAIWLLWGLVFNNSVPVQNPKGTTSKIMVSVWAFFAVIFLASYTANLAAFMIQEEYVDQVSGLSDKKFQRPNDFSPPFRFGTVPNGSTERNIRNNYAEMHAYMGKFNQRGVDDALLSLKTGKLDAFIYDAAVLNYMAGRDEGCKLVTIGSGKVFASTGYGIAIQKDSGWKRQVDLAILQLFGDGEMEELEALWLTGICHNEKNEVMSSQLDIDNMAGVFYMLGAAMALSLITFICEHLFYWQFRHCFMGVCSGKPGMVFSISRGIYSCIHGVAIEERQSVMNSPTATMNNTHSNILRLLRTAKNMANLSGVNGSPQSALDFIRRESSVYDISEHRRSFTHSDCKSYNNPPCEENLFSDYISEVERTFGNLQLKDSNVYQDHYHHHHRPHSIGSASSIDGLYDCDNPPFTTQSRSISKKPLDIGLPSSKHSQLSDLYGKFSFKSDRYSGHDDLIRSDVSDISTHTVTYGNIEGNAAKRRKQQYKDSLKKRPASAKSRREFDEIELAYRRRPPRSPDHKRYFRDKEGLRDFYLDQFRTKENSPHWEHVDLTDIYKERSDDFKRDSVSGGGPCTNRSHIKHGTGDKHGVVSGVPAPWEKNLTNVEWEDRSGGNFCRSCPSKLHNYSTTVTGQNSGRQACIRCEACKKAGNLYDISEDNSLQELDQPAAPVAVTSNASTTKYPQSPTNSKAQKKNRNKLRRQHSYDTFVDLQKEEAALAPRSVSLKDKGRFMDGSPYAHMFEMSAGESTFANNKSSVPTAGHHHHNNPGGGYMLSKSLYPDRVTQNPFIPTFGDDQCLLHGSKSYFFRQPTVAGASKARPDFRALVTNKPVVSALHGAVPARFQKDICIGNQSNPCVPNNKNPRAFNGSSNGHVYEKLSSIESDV
Test: NR2B Ca2+ influx assay
Type: cell-based
Conditions: HEK293, final concentration 10 μM; glutamic acid and glycine induced Ca2+ influx, HEK 293 cells expressing human GRIN1 and GRIN2B; read-out: % inhibited(10 μM)
Method: The HEK 293 cells that express GRIN1 and GRIN2B were purchased from ChanTest (human NMDA (NR1/NR2B) receptor-expressing, stable replicating cell line (HEK 293) catalog no. CT6121).
Intracellular calcium-ion (Ca^2+) influx caused by glycine and glutamic acid respectively binding to NR1 and NR2B was used as an index of NMDA receptor activation.
The HEK 293 cells expressing GRIN1 and GRIN2B were cultured in a cell culture flask in an incubator (37° C., in 5% CO2) using a DMEM/F-12 (Cosmo Bio, 10-092-CM) medium supplemented with 10% FBS (fetal bovine serum, AusGene), 100 units/mL penicillin, 100 μg/mL streptomycin, 500 μg/mL neomycin, 100 μg/mL Zeocin (registered trademark of Invitrogen), and 5 μg/mL blasticidin.
On the day before the assay, the cells were detached from the flask by trypsinization, suspended in a seeding medium (DMEM (Invitrogen, 31053) supplemented with 10% FBS, 100 units/mL penicillin, and 100 μg/mL streptomycin) so as to be 8×10^5 cells/mL, seeded at 25 μL per well in a 384-well plate (Falcon, 356663) so as to be 20,000 cells/well, and cultured overnight using the incubator. On the day of the assay, tetracycline (Wako Pure Chemical, 209-16561) was diluted with the seeding medium at 2 μg/mL, and added at 25 μL/well to the plate into which the cells were seeded, and this was cultured for 2 hours in the incubator. Afterward, the medium was removed and washed with an assay buffer (137 mM NaCl, 4 mM KCl, 1.8 mM CaCl2), 10 mM HEPES (pH 7.2), 10 mM glucose, 0.1% BSA) at 50 μL/well. Next, a loading buffer (buffer wherein 2.5 μM Fluo-4 AM, 2 mM amaranth, and 1 mM tartrazine are added to the assay buffer) was added at 25 μL/well, and this was incubated in the incubator for 30 minutes and for 15 minutes at room temperature. Solutions wherein the Example compounds were diluted with the above-mentioned assay buffer so as to be 30 μM (final concentration 10 μM) were added at 25 μL/well, and these were left standing for 15 minutes at room temperature. Using FDSS7000EX/μCELL (Hamamatsu Photonics), an assay buffer including 30 μM glutamic acid and 30 μM glycine was added at 25 μL/well, and a fluorescence signal of an Excitation wavelength of 480 nm and an Emission wavelength of 540 nm was measured every 3 seconds for 5 minutes. The inhibitory activity was calculated as a relative activity value (inhibitory rate) wherein relative to an integrated value of florescence values of each well, an integrated value of fluorescence values of a well into which an assay buffer without glutamic acid and glycine was defined as 100% inhibition.

Question: For C[C@H]1[C@@H](O)C(F)(F)C(=O)N1Cc1ccc(Oc2c(F)cc(F)cc2F)nc1 [Example 34, (4R,5S)-3,3-difluoro-4-hydroxy-5-methyl-1-{[6-(2,4,6-trifluorophenoxy)pyridin-3-yl]methyl}pyrrolidin-2-one], which inhibition at 10 µM is on record?
Answer: 97%

Question: For C[C@H]1CNC(=O)N1Cc1ccc(Oc2ccc(F)cc2F)nc1 [Example 35, (5S)-1-{[6-(2,4-difluorophenoxy)pyridin-3-yl]methyl}5-methylimidazolidin-2-one], which inhibition at 10 µM is on record?
Answer: 96%

Question: With C[C@H]1[C@@H](O)C(F)(F)C(=O)N1Cc1ccc(Oc2ccc(F)cc2F)nc1 [Example 36, (4R,5S)-1-{[6-(2,4-difluorophenoxy)pyridin-3-yl]methyl}-3,3-difluoro-4-hydroxy-5-methylpyrrolidin-2-one] as the compound, how does the inhibition at 10 µM read?
Answer: 97%

Question: With C[C@H]1[C@@H](O)CC(=O)N1Cc1ccc(Oc2ccc(F)cc2F)nc1 [Example 37, (4S,5S)-1{[-6-(2,4-difluorophenoxy)pyridin-3-yl]methyl}-4-hydroxy-5-methylpyrrolidin-2-one] as the compound, how does the inhibition at 10 µM read?
Answer: 97%

Question: Which inhibition at 10 µM does the source give for C[C@H]1[C@@H](O)CC(=O)N1Cc1ccc(Oc2ccc(C(F)F)cc2F)nc1 [Example 38, (4S,5S)-1-({6-[4-(difluoromethyl)-2-fluorophenoxy]pyridin-3-yl}methyl)-4-hydroxy-5-methylpyrrolidin-2-one] here?
Answer: 95%

Question: With Cc1ccc(Oc2ccc(CN3C(=O)OCC3CF)cn2)c(F)c1 (centres unmarked) [Example 39, 4-(fluoromethyl)-3-{[6-(2-fluoro-4-methylphenoxy)pyridin-3-yl]methyl}-1,3-oxazolidin-2-one] as the compound, how does the inhibition at 10 µM read?
Answer: 92%

Question: With Cc1ccc(Oc2ccc(CN3C(=O)OCC3C(F)F)cn2)c(F)c1 (centres unmarked) [Example 40, 4-(difluoromethyl)-3-{[6-(2-fluoro-4-methylphenoxy)pyridin-3-yl]methyl}-1,3-oxazolidin-2-one] as the compound, how does the inhibition at 10 µM read?
Answer: 95%

Question: Which inhibition at 10 µM does the source give for C[C@H]1[C@@H](O)CC(=O)N1Cc1ccc(Oc2ccc(C(F)(F)F)cc2F)nc1 [Example 41, (4S,5S)-1-({6-[2-fluoro-4-(trifluoromethyl)phenoxy]pyridin-3-yl}methyl)-4-hydroxy-5-methylpyrrolidin-2-one] here?
Answer: 95%

Question: Which inhibition at 10 µM does the source give for C[C@H]1CCC(=O)N1Cc1cnc(Oc2ccc(C(F)F)cc2F)nc1 [Example 42, (5S)-1-({2-[4-(difluoromethyl)-2-fluorophenoxy]pyrimidin-5-yl}methyl)-5-methylpyrrolidin-2-one] here?
Answer: 97%

Question: With C[C@H]1[C@@H](O)CC(=O)N1Cc1ccc(Oc2ccc(Cl)cc2F)nc1 [Example 43, (4S,5S)-1-{[6-(4-chloro-2-fluorophenoxy)pyridin-3-yl]methyl}4-hydroxy-5-methylpyrrolidin-2-one] as the compound, how does the inhibition at 10 µM read?
Answer: 98%

Question: Which inhibition at 10 µM does the source give for Cc1ccc(Oc2ncc(CN3C(=O)CC[C@@H]3C)cn2)c(F)c1 [Example 44, (5S)-1-{[2-(2-fluoro-4-methylphenoxy)pyrimidin-5-yl]methyl}-5-methylpyrrolidin-2-one] here?
Answer: 97%

Question: For C[C@H]1CCC(=O)N1Cc1cnc(Oc2ccc(F)cc2F)nc1 [Example 45, (5S)-1-{[2-(2,4-difluorophenoxy)pyrimidine-5-yl]methyl}-5-methylpyrrolidine-2-one], which inhibition at 10 µM is on record?
Answer: 96%

Question: With C[C@H]1CCC(=O)N1Cc1cnc(Oc2ccc(Cl)cc2F)nc1 [Example 46, (5S)-1-{[2-(4-chloro-2-fluorophenoxy)pyrimidin-5-yl]methyl}-5-methylpyrrolidin-2-one] as the compound, how does the inhibition at 10 µM read?
Answer: 97%

Question: For C[C@H]1CCC(=O)N1Cc1ccc(Oc2ccc(C(F)F)cc2F)nc1 [Example 47, (5S)-1-({6-[4-(difluoromethy)-2-fluorophenoxy]pyridin-3-yl}methyl)-5-methylpyrrolidin-2-one], which inhibition at 10 µM is on record?
Answer: 99%

Question: Which inhibition at 10 µM does the source give for C[C@H]1CCC(=O)N1Cc1ccc(Oc2ccc(F)cc2F)nc1 [Example 48, (5S)-1-{[6-(2,4-difluorophenoxy)pyridin-3-yl]methyl}-5-methylpyrrolidin-2-one] here?
Answer: 98%

Question: With C[C@H]1COC(=O)N1Cc1cnc(Oc2ccc(Cl)cc2F)nc1 [Example 49, (4S)-3-{[2-(4-chloro-2-fluorophenoxy)pyrimidin-5-yl]methyl}-4-methyl-1,3-oxazolidin-2-one] as the compound, how does the inhibition at 10 µM read?
Answer: 97%

Question: Which inhibition at 10 µM does the source give for C[C@H]1COC(=O)N1Cc1ccc(Oc2ccc(C(F)F)cc2F)nc1 [Example 50, (4S)-3-({6-[4-(difluoromethyl)-2-fluorophenoxy]pyridin-3-yl}methyl)-4-methyl-1,3-oxazolidin-2-one] here?
Answer: 98%

Tested on: not given
Test: not given
Conditions: continuous intravenous administration; cited from earlier work

Question: For C[C@@H]([C@@H](O)c1ccc(O)cc1)N1CCC(O)(c2ccccc2)CC1 [CP-101,606], which treatment-resistant depression symptoms is on record?
Answer: significantly improved

Tested on: not given
Test: not given
Conditions: in vivo; cited from earlier work
Remark: another data set of the same source

Question: Which pain threshold value does the source give for CC(C(O)c1ccc(O)cc1)N1CCC(Cc2ccccc2)CC1 (centres unmarked) [Ifenprodil] here?
Answer: increased

Tested on: not given
Test: not given
Conditions: intravenous single administration; cited from earlier work

Question: For CNC1(c2ccccc2Cl)CCCCC1=O (centres unmarked) [ketamine], which “depression symptoms associated with major depression and bipolar disorder” value is on record?
Answer: rapidly and continuously improves depression symptoms
